For assay [1], the system named is diabetic mice. Nature of the assay: Paw tactile response threshold by manual von Frey filament (tactile allodynia) in STZ Type I diabetes model. The class given is in vivo, Swiss Webster mice. The method, then:
(§1) Adult female Swiss Webster mice (20-25 grams) were used in the study. They were maintained in a room at 65-82° F. and relative humidity of 30-70% illuminated with fluorescent lighting on a 12 hour light/dark cycle. The animals were maintained 2-3 per cage with free access to dry food and municipal water. Diabetes was induced following an overnight fast by injection of streptozotocin (STZ) (90 mg/kg ip in 0.9% sterile saline) on two consecutive days. Hyperglycemia was confirmed 4 days later in a sample of blood obtained by tail prick using a strip operated reflectance meter. Animals were observed daily and weighed weekly during the study period.
(§2) Test compounds were evaluated, with treatment begun immediately after onset of diabetes (Part A) or after 7-8 weeks of diabetes in Part B. Each group started with 10 animals per group to allow identification of differences in nerve conduction, paw thermal latency and intra-epidermal nerve fiber (IENF) density between control and diabetic mice, assuming the routinely observed 20-40% difference between groups and measurement coefficients of variation of 10-20%.
(§3) PART A (onset) • Control+vehicle • Diabetic+vehicle • Diabetic+insulin (by implanted pellet) • Diabetic+NSI-158 • Diabetic+NSI-189 • Diabetic+NSI-190
(§4) PART B (7-8 weeks) • Control+vehicle • Diabetic+vehicle • Diabetic+NSI-150 • Diabetic+NSI-182 • Diabetic+NSI-183 • Diabetic+NSI-189
(§5) Insulin was supplied by an implanted insulin pellet replaced monthly as needed (LinBit™, LinShin, Canada) and the test compounds were supplied by oral gavage. The following measurements were made 24 hours after delivery of test compound: • Body weight: Weekly from onset of diabetes; • Blood glucose: At onset of diabetes and monthly thereafter; • MNCV (large motor fiber function): Before onset of diabetes and monthly thereafter; • Paw tactile response threshold (large sensory fiber function) by manual von Frey filament: Monthly from onset of diabetes; • Paw thermal response latency (small sensory fiber): Monthly from onset of diabetes; • Corneal nerve density (small sensory fiber structure): Images were collected before onset of diabetes and monthly thereafter; • Barnes maze performance (learning and memory): After 10 weeks of diabetes and at study termination; and • Object recognition test (memory): After 10 weeks of diabetes and at study termination.
(§6) The various procedures set forth above are those described in the art as follows: • Jolivalt, C. G., et al., Exp. Neurol. (2010) 223:422-431; • Jolivalt, C. G., et al., Diabetes Obes. Metab. (2011) 13:990-1000; • Jolivalt, C. G., et al., Neuroscience (2012) 202:405-412; and • Chen, D. K., et al., J. Peripher. Nerv. Syst. (2013) 18:306-315.

In assay [2] the test system is diabetic mice. Nature of the assay: Corneal nerve density (small fiber pathology) in STZ Type I diabetes model. Format: in vivo, Swiss Webster mice. The method, then:
as §1, §2, §3, §4, §5, §6

Assay [3] relates to diabetic mice. Nature of the assay: Paw thermal response latency (paw response to heat) in STZ Type I diabetes model. The class given is in vivo, Swiss Webster mice. The method, then: as §1, §2, §3, §4, §5, §6
In assay [4] the test system is db/db (BKS.Cg-Dock7^m+/+Lepr^db/J) mice. The experiment in a line: Thermal hypoalgesia in Type II diabetes model. Format: in vivo. Conditions: after 17-22 weeks of treatment. The text has this:
(§7) Type II diabetes was modeled by db/db (BKS.Cg-Dock7^m+/+Lepr^db/J) mice. These mice were maintained in a manner similar to that set forth in Example 1.

Assay [5] concerns diabetic mice. The experiment in a line: Barnes maze test (learning and memory) in STZ Type I diabetes model. Particulars: for Barnes maze long-term retention / Barnes maze other parameters (initial acquisition, reinforced learning, short-term retention): Part A (treatment from onset). Format: in vivo, Swiss Webster mice. The method, then: as §1, §2, §3, §4, §5, §6
The test system of assay [6] is db/db (BKS.Cg-Dock7^m+/+Lepr^db/J) mice. Nature of the assay: Tactile allodynia in Type II diabetes model. Format: in vivo. Conditions: after 17-22 weeks of treatment.
Excerpt: as §7

Assay [7] has the same test system. The experiment in a line: MNCV in Type II diabetes model. The class given is in vivo. Particulars: after 17-22 weeks of treatment.
Excerpt: as §7

In assay [8] the test system is diabetic mice. Nature of the assay: IENF density in isolated paw skin tissue in STZ Type I diabetes model. Format: in vivo, Swiss Webster mice. The method, then:
as §1, §2, §3, §4
Paw skin tissue was evaluated for IENF density in some cases.
as §6

Assay [9] has as its system diabetic mice. Nature of the assay: Nerve density in the sub-epidermal nerve plexus in STZ Type I diabetes model. Format: in vivo, Swiss Webster mice. The method, then:
as §1, §2, §3, §4, §5, §6

The test system of assay [10] is diabetic mice. The experiment in a line: MNCV (large motor fiber function) in STZ Type I diabetes model. The class given is in vivo, Swiss Webster mice. The method, then: as §1, §2, §3, §4, §5, §6
For assay [11], the system named is diabetic mice. Nature of the assay: Systemic indices of diabetes (body weight, blood glucose, HbA1c) in STZ Type I diabetes model. The class given is in vivo, Swiss Webster mice. Particulars: Part A, treatment from the outset. The method, then: as §1, §2, §3, §4
Insulin was supplied by an implanted insulin pellet replaced monthly as needed (LinBit™, LinShin, Canada) and the test compounds were supplied by oral gavage. […]

The test system of assay [12] is diabetic mice. Nature of the assay: Object recognition test (memory) in STZ Type I diabetes model. The class given is in vivo, Swiss Webster mice. Conditions: Part A (treatment from onset), weeks 10 and 16. The method, then: as §1, §2, §3
PART B (7-8 weeks) • Control+vehicle • Diabetic+vehicle • Diabetic+NSI-150 • Diabetic+NSI-182 • Diabetic+NSI-183 • Diabetic+NSI-189 […]

The mark [13] stands for this setting: Part B (treatment after 7-8 weeks of diabetes).
Setting [14] is: Part A (treatment from onset), measured 24 hours after the last treatment.
Where [15] appears, read: Part A (treatment from onset), distal regions of small sensory fibers.
Setting [16] is: Part A (treatment from onset), more proximal regions.
The mark [17] stands for this setting: Part A (treatment from onset of diabetes), end of study period.

Data on seven molecules can be found in patent US10322115B2, “Amelioration of neural deficits associated with diabetes” (Neuralstem, Inc., priority 2016, dated 2019).

With `O=C(COc1ccccc1)NCc1nc2ccccn2c1NCC1CCCO1` (centres unmarked) [NSI-183], in the assay with diabetic mice [1] (setting [13]), the paw tactile allodynia entry is on record as “did not”. In the assay on diabetic mice [2] (setting [13]), the “loss of corneal nerve density in Bowman's layer” value (“loss … in Bowman's layer” below) was “protective” and the “loss of corneal nerve density in the stroma” value (from here on “loss … in the stroma”) was “no protective effect”. In addition, the paw thermal hypoalgesia entry in the assay on diabetic mice [3] (setting [13]) is on record as “did not”.

Consider `CC(C)CCNc1ncccc1C(=O)N1CCN(Cc2ccccc2)CC1` [NSI-189], for which the “progressive development of thermal hypoalgesia” value in [4] is “significantly reversed”. In the assay with diabetic mice [5], the “Barnes maze long-term retention” value is “improved long-term retention”. Besides, the “Barnes maze other parameters (initial acquisition, reinforced learning, short-term retention)” value (shortened to “Barnes maze other parameters”) with diabetic mice [5] is reported as “without altering the other parameters”. The “progressive development of tactile allodynia” value in [6] is listed as “significantly reversed”. Besides, the “progressive development of MNCV slowing” value in assay [7] is given as “significantly reversed”. Moreover, the figures for the paw tactile allodynia entry in the assay on diabetic mice [1] (setting [14]) and in the assay with diabetic mice [1] (setting [13]) were “attenuated tactile allodynia” and “partially reversed paw tactile allodynia”, respectively. Also, the “reduction of IENF density in isolated tissue” value (“reduction of IENF density” below) in the assay on diabetic mice [8] (Part A (treatment from onset)) is recorded as “attenuated”; in the assay with diabetic mice [8] (setting [13]) it was “reversed”. The “reduction of nerve density in the sub-epidermal nerve plexus” value (shortened to “reduction of nerve density”) is on record as “attenuated” with diabetic mice [9] (Part A (treatment from onset)) and “protective” in the assay on diabetic mice [9] (setting [13]). The “loss … in Bowman's layer” value in the assay with diabetic mice [2] (setting [15]) is recorded as “attenuated the loss”; with diabetic mice [2] (setting [13]) it was “protective”. In addition, the “loss … in the stroma” value with diabetic mice [2] (setting [16]) is listed as “attenuated this loss”; in the assay on diabetic mice [2] (setting [13]) it was “protective”. Moreover, the paw thermal hypoalgesia entry in the assay with diabetic mice [3] (Part A (treatment from onset)) is reported as “prevented paw thermal hypoalgesia”; with diabetic mice [3] (setting [13]), “prevented progression of paw thermal hypoalgesia”. In addition, the results for the MNCV slowing result in the assay with diabetic mice [10] (setting [17]) and in the assay with diabetic mice [10] (setting [13]) were “mild attenuation of MNCV slowing” and “partially reversed MNCV slowing”, respectively.

As to `C=CCNC(=O)c1cccnc1NCc1ccccc1OC` [NSI-150], the paw tactile allodynia result with diabetic mice [1] (setting [13]) was “did not”. In addition, the “loss … in the stroma” value in the assay with diabetic mice [2] (setting [13]) is given as “no protective effect”. Also, the paw thermal hypoalgesia entry with diabetic mice [3] (setting [13]) is listed as “did not”.

Consider insulin [reference compound], for which the “Barnes maze impairments (initial acquisition and long-term retention)” value in the assay on diabetic mice [5] (Part A, insulin pellet) is recorded as “prevented all of this”. For the same molecule, the paw tactile allodynia result with diabetic mice [1] (setting [14]) is reported as “attenuated”. The “reduction of IENF density” value in the assay on diabetic mice [8] (Part A (treatment from onset)) is “prevented”. The “reduction of nerve density” value in the assay on diabetic mice [9] (Part A (treatment from onset)) is recorded as “prevented”. Moreover, in the assay with diabetic mice [2] (setting [15]), the “loss … in Bowman's layer” value is given as “prevented”. Moreover, in the assay on diabetic mice [2] (setting [16]), the “loss … in the stroma” value is “prevented”. Also, in the assay with diabetic mice [11], the hyperglycemia entry is reported as “reduced hyperglycemia” and the weight gain result is on record as “partially restored weight gain”. For the same molecule, in the assay with diabetic mice [11] (terminal), the HbA1c levels result was “reduced HbA1c levels”. For the same molecule, the paw thermal hypoalgesia result with diabetic mice [3] (Part A (treatment from onset)) was “prevents this”. For the same molecule, the MNCV slowing result in the assay on diabetic mice [10] (setting [17]) is on record as “prevented”. Further, the “object recognition: impaired short-term memory” value in the assay on diabetic mice [12] is on record as “not prevented”.

Regarding `O=C(NCc1nc2ccccn2c1NCC1CCCO1)Oc1ccccc1` (centres unmarked) [NSI-182], the paw tactile allodynia result in the assay on diabetic mice [1] (setting [13]) was “did not”. For the same molecule, in the assay on diabetic mice [2] (setting [13]), the “loss … in Bowman's layer” value was “protective” and the “loss … in the stroma” value is given as “no protective effect”. The paw thermal hypoalgesia result in the assay with diabetic mice [3] (setting [13]) is listed as “did not”.

Take `NC(=O)C1CCCN1C(=O)c1cccnc1NCC1CCCCC1` (centres unmarked) [NSI-158]: in the assay on diabetic mice [5], the “Barnes maze long-term retention” value was “improved long-term retention” and the “Barnes maze other parameters” value is reported as “without altering the other parameters”. Moreover, in the assay on diabetic mice [1] (setting [14]), the paw tactile allodynia entry is “attenuated tactile allodynia”. In the assay on diabetic mice [8] (Part A (treatment from onset)), the “reduction of IENF density” value is given as “attenuated”. Further, the “reduction of nerve density” value with diabetic mice [9] (Part A (treatment from onset)) was “attenuated”. The “loss … in Bowman's layer” value in the assay on diabetic mice [2] (setting [15]) is listed as “no protective effect”. Moreover, the paw thermal hypoalgesia result in the assay on diabetic mice [3] (Part A (treatment from onset)) is “prevented paw thermal hypoalgesia”. Moreover, the MNCV slowing entry in the assay with diabetic mice [10] (setting [17]) is given as “mild attenuation of MNCV slowing”.

On to `CCN(CCNC(=O)c1cccnc1NCCC(C)C)Cc1cccnc1` [NSI-190], for which, in the assay on diabetic mice [5], the “Barnes maze long-term retention” value is “improved long-term retention” and the “Barnes maze other parameters” value is listed as “without altering the other parameters”. The paw tactile allodynia result in the assay on diabetic mice [1] (setting [14]) is on record as “attenuated tactile allodynia”. Moreover, the “reduction of nerve density” value in the assay with diabetic mice [9] (Part A (treatment from onset)) is on record as “attenuated”. Further, the “loss … in Bowman's layer” value in the assay on diabetic mice [2] (setting [15]) is “no protective effect”. In addition, the “loss … in the stroma” value with diabetic mice [2] (setting [16]) was “attenuated this loss”. In addition, in the assay on diabetic mice [3] (Part A (treatment from onset)), the paw thermal hypoalgesia entry is on record as “prevented paw thermal hypoalgesia”. Further, the MNCV slowing entry in the assay with diabetic mice [10] (setting [17]) is “mild attenuation of MNCV slowing”. In addition, the “object recognition: impaired short-term memory” value in the assay with diabetic mice [12] is “prevented this memory loss”.
